Read-outs that look alike come from different tables or passages of the source. Starred links: 1 amine or outer side, 2 acyl side, 3 side chain; linkers in the order of their positions; H or OH if unused. Positions of bridges follow the written chain, without caps; N, C: chain ends. Non-standard residues stand in square brackets, D forms with d. Residues, ends and D or L forms follow the SMILES beside them. Groups on a side chain read outwards from the residue. *: point of attachment. dPhe(4-NH2) = Nc1ccc(C[C@@H](N)C(=O)O)cc1; Phe(4-NH2) = Nc1ccc(C[C@H](N)C(=O)O)cc1; NH(2-Me-phenyl) = Cc1ccccc1N*; Phg = N[C@H](C(=O)O)c1ccccc1; d(β3hA) = C[C@@H](N)CC(=O)O; CO = O=C([*:1])[*:2]; NHPr = CCCN*
Tests used:
α4β1 integrin [1] = target: T1, α4β1 integrin (Homo sapiens, UniProt P05556+P13612); experiment: Jurkat E6.1 cell adhesion to FN; conditions: for agonist or antagonist behaviour, FN/Jurkat E6.1 α4β1: agonist = adhesion index >1, antagonist = adhesion index <1
T1 sequence (P13612 34-1032): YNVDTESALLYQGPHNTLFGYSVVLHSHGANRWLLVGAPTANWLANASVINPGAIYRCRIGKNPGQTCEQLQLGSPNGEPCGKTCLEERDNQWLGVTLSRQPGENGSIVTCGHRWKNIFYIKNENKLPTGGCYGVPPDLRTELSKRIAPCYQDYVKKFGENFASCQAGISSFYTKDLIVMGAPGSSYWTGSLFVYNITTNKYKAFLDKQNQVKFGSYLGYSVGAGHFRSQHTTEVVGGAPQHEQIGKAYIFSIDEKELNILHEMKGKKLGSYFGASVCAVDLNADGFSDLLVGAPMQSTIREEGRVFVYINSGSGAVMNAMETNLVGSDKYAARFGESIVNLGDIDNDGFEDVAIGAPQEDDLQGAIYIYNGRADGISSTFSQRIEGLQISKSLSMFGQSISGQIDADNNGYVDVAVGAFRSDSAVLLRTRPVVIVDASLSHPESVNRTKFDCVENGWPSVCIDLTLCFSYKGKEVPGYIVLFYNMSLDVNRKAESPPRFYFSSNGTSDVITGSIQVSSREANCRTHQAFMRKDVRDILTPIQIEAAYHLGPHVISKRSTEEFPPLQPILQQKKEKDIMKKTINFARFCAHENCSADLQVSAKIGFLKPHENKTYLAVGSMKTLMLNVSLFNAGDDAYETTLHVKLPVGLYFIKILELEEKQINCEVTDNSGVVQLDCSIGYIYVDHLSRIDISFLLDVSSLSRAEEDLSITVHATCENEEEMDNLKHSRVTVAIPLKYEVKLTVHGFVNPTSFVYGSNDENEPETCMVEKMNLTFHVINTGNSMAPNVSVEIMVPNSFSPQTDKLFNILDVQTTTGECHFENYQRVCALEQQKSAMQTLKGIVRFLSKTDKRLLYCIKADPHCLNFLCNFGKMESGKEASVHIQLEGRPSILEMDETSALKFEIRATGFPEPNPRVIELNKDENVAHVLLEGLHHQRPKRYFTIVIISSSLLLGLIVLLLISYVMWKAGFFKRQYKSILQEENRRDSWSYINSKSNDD
T1 sequence (P05556 21-798): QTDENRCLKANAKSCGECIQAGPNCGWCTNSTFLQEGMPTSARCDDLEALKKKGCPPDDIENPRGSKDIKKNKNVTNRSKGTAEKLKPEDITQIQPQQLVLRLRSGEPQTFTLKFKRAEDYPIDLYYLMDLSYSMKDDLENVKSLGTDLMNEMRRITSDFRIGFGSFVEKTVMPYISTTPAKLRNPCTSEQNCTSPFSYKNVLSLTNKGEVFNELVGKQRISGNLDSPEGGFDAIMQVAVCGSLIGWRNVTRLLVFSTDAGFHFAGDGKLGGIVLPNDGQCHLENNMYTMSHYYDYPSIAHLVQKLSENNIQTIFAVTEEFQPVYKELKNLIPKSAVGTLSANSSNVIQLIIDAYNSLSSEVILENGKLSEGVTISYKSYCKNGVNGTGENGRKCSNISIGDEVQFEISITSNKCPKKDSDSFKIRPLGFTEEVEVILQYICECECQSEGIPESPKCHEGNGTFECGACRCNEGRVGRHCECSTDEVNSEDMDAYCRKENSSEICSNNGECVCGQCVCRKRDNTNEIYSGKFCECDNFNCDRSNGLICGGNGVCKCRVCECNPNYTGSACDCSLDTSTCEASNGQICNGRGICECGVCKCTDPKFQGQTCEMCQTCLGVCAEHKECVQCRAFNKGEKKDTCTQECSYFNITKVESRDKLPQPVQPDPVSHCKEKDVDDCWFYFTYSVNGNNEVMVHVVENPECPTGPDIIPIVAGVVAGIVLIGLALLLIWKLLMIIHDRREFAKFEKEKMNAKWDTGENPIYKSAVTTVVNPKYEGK
Procedure: (§1) Cells were seeded in 96-well plates coated with the specific natural human recombinant ligands (Table 1) and allowed to adhere in the presence of increasing concentrations (10^–10 to 10^–4 M) of the synthesized CPPs before the determination of the number of adherent cells (as described in Experimental Section).
For adhesion assays on Jurkat E6.1, RPMI8866, or HL60 cells, black 96-well plates were coated overnight at 4 °C with VCAM-1 or ICAM-1 or MAdCAM-1 (5 μg/mL) or Fg (10 μg/mL). The cells were counted, stained with CellTracker green CMFDA (12.5 μM, 30 min at 37 °C, Life Technologies), and after three washes, were preincubated with increasing concentrations of new CPP (10^–10 to 10^–4 M) or with the vehicle (methanol) for 30 min at 37 °C. Then cells were plated (500 000/well) on coated wells and incubated for 30 min at 37 °C. After three washes, adhered cells were lysed with 0.5% Triton X-100 in PBS (30 min at 4 °C) and fluorescence was measured (Ex485 nm/Em535 nm) in an EnSpire Multimode Plate Reader (PerkinElmer, Waltham, MA). For adhesion assays mediated by α5β1 integrin, 96-well plates were coated by passive adsorption with FN (10 μg/mL) overnight at 4 °C. K562 cells were counted and preincubated with various concentrations of the peptides or with the vehicle (methanol) for 30 min at RT. Afterward, the cells were plated (50 000 cells/well) and incubated at RT for 1 h. The wells were then washed with 1% BSA in PBS (phosphate-buffered saline) to take off nonadherent cells, and 50 μL of hexosaminidase substrate was added; after addition of 100 μL of stopping solution, the plates were read at 405 nm. In both types of adhesion assay, the number of adherent cells was determined by comparison with a standard curve made in the same plate. Experiments were carried out in quadruplicate and repeated at least three times.
Jurkat E6.1 (expressing α4β1 and αLβ2 integrin), K562 (expressing α5β1 integrin) and HL60 (expressing αMβ2 integrin) cell lines were purchased from ATCC (Rockville, MD, USA); these cells were routinely cultured in RPMI-1640 (Life Technologies) supplemented with glutamine and 10% FBS.
Cells were grown at 37 °C under 5% CO2 humidified atmosphere.

α4β1 integrin [2] = target: T1, α4β1 integrin; experiment: Jurkat E6.1 cell adhesion to VCAM-1; conditions: agonist = adhesion index >1, antagonist = adhesion index <1
Procedure: as §1
For adhesion assays on Jurkat E6.1, RPMI8866, or HL60 cells, black 96-well plates were coated overnight at 4 °C with VCAM-1 or ICAM-1 or MAdCAM-1 (5 μg/mL) or Fg (10 μg/mL). The cells were counted, stained with CellTracker green CMFDA (12.5 μM, 30 min at 37 °C, Life Technologies), and after three washes, were preincubated with increasing concentrations of new CPP (10^–10 to 10^–4 M) or with the vehicle (methanol) for 30 min at 37 °C. Then cells were plated (500 000/well) on coated wells and incubated for 30 min at 37 °C. After three washes, adhered cells were lysed with 0.5% Triton X-100 in PBS (30 min at 4 °C) and fluorescence was measured (Ex485 nm/Em535 nm) in an EnSpire Multimode Plate Reader (PerkinElmer, Waltham, MA). For adhesion assays mediated by α5β1 integrin, 96-well plates were coated by passive adsorption with FN (10 μg/mL) overnight at 4 °C. K562 cells were counted and preincubated with various concentrations of the peptides or with the vehicle (methanol) for 30 min at RT. Afterward, the cells were plated (50 000 cells/well) and incubated at RT for 1 h. The wells were then washed with 1% BSA in PBS (phosphate-buffered saline) to take off nonadherent cells, and 50 μL of hexosaminidase substrate was added; after addition of 100 μL of stopping solution, the plates were read at 405 nm. In both types of adhesion assay, the number of adherent cells was determined by comparison with a standard curve made in the same plate. Experiments were carried out in quadruplicate and repeated at least three times. […]

[3] = test system: ERK1/2 phosphorylation mediated by α4β1 integrin; experiment: ERK1/2 phosphorylation in Jurkat E6.1 cells (Western blot); type: cell-based; conditions: compound 10^–7 to 10^–9 M, no FN, vs vehicle
Procedure: Intracellular signaling generated by the interaction of ECM components with α4β1 integrin produces an increase in the phosphorylation of cytoplasmatic second messengers such as ERK1/2 that contribute to α4 integrin-mediated cell functions.
Western blot analysis was performed as previously described, with the following modifications. […] On the other hand, after 1 h incubation with integrin antagonists, the cells were then seeded on FN (10 μg/mL) coated plates for 1 h. Integrin agonists were not incubated with FN. At the end of the incubation time, Jurkat E6.1 cells were lysed on ice using a mammalian protein extraction reagent (M-PER; Pierce, Rockford, IL) supplemented with a phosphatase inhibitor cocktail. Protein extracts were quantified using a BCA protein assay kit (Pierce), separated by 12% SDS-PAGE gel, transferred onto nitrocellulose membranes, and immunoblotted with anti-phospho-ERK1/2 (1:1000) (Cell Signaling Technology, Danvers, MA) or anti-total ERK1/2 antibodies (1:2500) (Cell Signaling Technology). Protocols for digital image acquisition and analysis have been previously described.[73] Densitometric analysis of the bands is reported (mean ± SD; n = 3); the amount of phosphorylated ERK1/2 (pERK1/2) is normalized to that of total ERK1/2 (totERK1/2). Experiments were replicated independently at least three times. Statistical analyses were performed using one-way ANOVA and the post hoc Newman–Keuls test.

[4] = amide bond, 16-membered ring, HBTU/HOBt/DIPEA, DMF, 25.0 °C

## Cc1ccccc1NC(=O)Nc1ccc(C[C@H]2NC(=O)C[C@H](C(=O)O)NC(=O)[C@H](C(C)C)NC(=O)[C@H](CC(=O)O)NC(=O)[C@H](CC(C)C)NC2=O)cc1 [3d, c[(R)-Phu-Leu-Asp-Val-(R)-isoAsp]] ([dPhe(4-NH2)]([CO-NH(2-Me-phenyl)])LDV[dD]-OH; lactam N-5 (inferred))
α4β1 integrin [1]
  agonist or antagonist behaviour, FN/Jurkat E6.1 α4β1: agonist
α4β1 integrin [2]
  agonist or antagonist behaviour, VCAM-1/Jurkat E6.1 α4β1: agonist
[3]
  effect on ERK1/2 phosphorylation, compound administered alone: significant concentration-dependent increase of ERK1/2 phosphorylation

## Cc1ccccc1NC(=O)Nc1ccc(C[C@@H]2NC(=O)C[C@@H](C)NC(=O)[C@H](C(C)C)NC(=O)[C@H](CC(=O)O)NC(=O)[C@H](CC(C)C)NC2=O)cc1 [11a, c[(S)-Phu-Leu-Asp-Val-(R)-β^3homoAla]] (cyclo([Phe(4-NH2)]([CO-NH(2-Me-phenyl)])LDV[d(β3hA)]))
α4β1 integrin [1]
  IC50: > 5 µM

## Cc1ccccc1NC(=O)Nc1ccc(C[C@H]2NC(=O)C[C@@H](C(=O)O)NC(=O)[C@H](C(C)C)NC(=O)[C@H](C)NC(=O)[C@H](CC(C)C)NC2=O)cc1 [12c, c[(R)-Phu-Leu-Ala-Val-(S)-isoAsp]] ([dPhe(4-NH2)]([CO-NH(2-Me-phenyl)])LAVD-OH; lactam N-5 (inferred))
α4β1 integrin [1]
  agonist or antagonist behaviour, FN/Jurkat E6.1 α4β1: agonist

## Cc1ccccc1NC(=O)Nc1ccc(C[C@@H]2NC(=O)C[C@@H](C(=O)OCc3ccccc3)NC(=O)[C@H](C(C)C)NC(=O)[C@H](CC(=O)OCc3ccccc3)NC(=O)[C@H](CC(C)C)NC2=O)cc1 [H-Asp(OBn)-Val-isoAsp(OBn)-Phu-Leu-OH?]
[4]; from H-Asp(OBn)-Val-isoAsp(OBn)-Phu-Leu-OH?
  ring closure, yield after HPLC: 0%

## Cc1ccccc1NC(=O)Nc1ccc(C[C@@H]2NC(=O)C[C@@H](C(=O)OCc3ccccc3)NC(=O)[C@H](C(C)C)NC(=O)[C@H](C)NC(=O)[C@H](CC(C)C)NC2=O)cc1 [H-Phu-Leu-Ala-Val-isoAsp(OBn)-OH]
[4]; from H-Phu-Leu-Ala-Val-isoAsp(OBn)-OH
  ring closure, yield after HPLC: 37%

## Cc1ccccc1NC(=O)Nc1ccc(C[C@@H]2NC(=O)C[C@@H](C)NC(=O)[C@H](C(C)C)NC(=O)[C@H](CC(=O)OCc3ccccc3)NC(=O)[C@H](CC(C)C)NC2=O)cc1 [H-Phu-Leu-Asp(OBn)-Val-(R)-β3homoAla-OH]
[4]; from H-Phu-Leu-Asp(OBn)-Val-(R)-β3homoAla-OH
  ring closure, yield after HPLC: 50%

## Cc1ccccc1NC(=O)Nc1ccc(C[C@@H]2NC(=O)C[C@H](C(=O)OCc3ccccc3)NC(=O)[C@H](C(C)C)NC(=O)[C@H](CC(=O)OCc3ccccc3)NC(=O)[C@H](CC(C)C)NC2=O)cc1 [H-Phu-Leu-Asp(OBn)-Val-disoAsp(OBn)-OH]
[4]; from H-Phu-Leu-Asp(OBn)-Val-disoAsp(OBn)-OH
  ring closure, yield after HPLC: 19%

## CCCNC(=O)[C@@H]1CC(=O)N[C@@H](Cc2ccc(NC(=O)Nc3ccccc3C)cc2)C(=O)N[C@@H](CC(C)C)C(=O)N[C@@H](CC(=O)OCc2ccccc2)C(=O)N[C@@H](C(C)C)C(=O)N1 [H-Phu-Leu-Asp(OBn)-Val-isoAsp(NHPr)-OH?]
[4]; from H-Phu-Leu-Asp(OBn)-Val-isoAsp(NHPr)-OH?
  ring closure, yield after HPLC: 27%

## Cc1ccccc1NC(=O)Nc1ccc(C[C@@H]2NC(=O)C[C@@H](C(=O)OCc3ccccc3)NC(=O)[C@H](C(C)C)NC(=O)[C@H](CC(=O)OCc3ccccc3)NC(=O)[C@H](CC(C)C)NC2=O)cc1 [H-Phu-Leu-Asp(OBn)-Val-isoAsp(OBn)-OH]
[4]; from H-Phu-Leu-Asp(OBn)-Val-isoAsp(OBn)-OH
  ring closure, yield after HPLC: 28%

## Cc1ccccc1NC(=O)Nc1ccc(C[C@@H]2NC(=O)C[C@@H](C(=O)OCc3ccccc3)NC(=O)[C@H](C(C)C)NC(=O)[C@H](C)NC(=O)[C@H](Cc3ccccc3)NC2=O)cc1 [H-Phu-Phe-Ala-Val-isoAsp(OBn)-OH]
[4]; from H-Phu-Phe-Ala-Val-isoAsp(OBn)-OH
  ring closure, yield after HPLC: 48%

## Cc1ccccc1NC(=O)Nc1ccc(C[C@@H]2NC(=O)C[C@@H](C(=O)OCc3ccccc3)NC(=O)[C@H](C(C)C)NC(=O)[C@H](CC(=O)OCc3ccccc3)NC(=O)[C@H](Cc3ccccc3)NC2=O)cc1 [H-Phu-Phe-Asp(OBn)-Val-isoAsp(OBn)-OH]
[4]; from H-Phu-Phe-Asp(OBn)-Val-isoAsp(OBn)-OH
  ring closure, yield after HPLC: 25%

## Cc1ccccc1NC(=O)Nc1ccc(C[C@H]2NC(=O)C[C@@H](C(=O)OCc3ccccc3)NC(=O)[C@H](C(C)C)NC(=O)[C@H](C)NC(=O)[C@H](CC(C)C)NC2=O)cc1 [H-dPhu-Leu-Ala-Val-isoAsp(OBn)-OH]
[4]; from H-dPhu-Leu-Ala-Val-isoAsp(OBn)-OH
  ring closure, yield after HPLC: 15%

## Cc1ccccc1NC(=O)Nc1ccc(C[C@H]2NC(=O)C[C@@H](C(=O)OCc3ccccc3)NC(=O)[C@H](c3ccccc3)NC(=O)[C@H](CC(=O)OCc3ccccc3)NC(=O)[C@H](CC(C)C)NC2=O)cc1 [H-dPhu-Leu-Asp(OBn)-Phg-isoAsp(OBn)-OH?]
[4]; from H-dPhu-Leu-Asp(OBn)-Phg-isoAsp(OBn)-OH?
  ring closure, yield after HPLC: 43%

## Cc1ccccc1NC(=O)Nc1ccc(C[C@H]2NC(=O)C[C@@H](C)NC(=O)[C@H](C(C)C)NC(=O)[C@H](CC(=O)OCc3ccccc3)NC(=O)[C@H](CC(C)C)NC2=O)cc1 [H-dPhu-Leu-Asp(OBn)-Val-(R)-β3homoAla-OH]
[4]; from H-dPhu-Leu-Asp(OBn)-Val-(R)-β3homoAla-OH
  ring closure, yield after HPLC: 33%

## Cc1ccccc1NC(=O)Nc1ccc(C[C@H]2NC(=O)C[C@H](C(=O)OCc3ccccc3)NC(=O)[C@H](C(C)C)NC(=O)[C@H](CC(=O)OCc3ccccc3)NC(=O)[C@H](CC(C)C)NC2=O)cc1 [H-dPhu-Leu-Asp(OBn)-Val-disoAsp(OBn)-OH]
[4]; from H-dPhu-Leu-Asp(OBn)-Val-disoAsp(OBn)-OH
  ring closure, yield after HPLC: 34%

## Cc1ccccc1NC(=O)Nc1ccc(C[C@H]2NC(=O)C[C@@H](C(=O)OCc3ccccc3)NC(=O)[C@H](C(C)C)NC(=O)[C@H](CC(=O)OCc3ccccc3)NC(=O)[C@H](CC(C)C)NC2=O)cc1 [H-dPhu-Leu-Asp(OBn)-Val-isoAsp(OBn)-OH]
[4]; from H-dPhu-Leu-Asp(OBn)-Val-isoAsp(OBn)-OH
  ring closure, yield after HPLC: 29%

## Cc1ccccc1NC(=O)Nc1ccc(C[C@@H]2NC(=O)C[C@@H](C(=O)OCc3ccccc3)NC(=O)[C@H](C(C)C)NC(=O)[C@H](CC(=O)OCc3ccccc3)NC(=O)[C@H](CC(C)C)NC2=O)cc1 [H-isoAsp(OBn)-Phu-Leu-Asp(OBn)-Val-OH]
[4]; from H-isoAsp(OBn)-Phu-Leu-Asp(OBn)-Val-OH
  ring closure, yield after HPLC: 0%

## CCCNC(=O)[C@@H]1CC(=O)N[C@@H](Cc2ccc(NC(=O)Nc3ccccc3C)cc2)C(=O)N[C@@H](CC(C)C)C(=O)N[C@@H](CC(=O)O)C(=O)N[C@@H](C(C)C)C(=O)N1 [compound 13, c[(S)-PhU-Leu-Asp-Val-(S)-isoAsp(nPr)]] ([Phe(4-NH2)]([CO-NH(2-Me-phenyl)])LDVD-NHPr; lactam N-5 (inferred))
α4β1 integrin [1]
  IC50: > 5 µM
  agonist or antagonist behaviour, FN/Jurkat E6.1 α4β1: complete loss of activity

## Cc1ccccc1NC(=O)Nc1ccc(C[C@@H]2NC(=O)C[C@@H](C(=O)O)NC(=O)[C@H](C(C)C)NC(=O)[C@H](CC(=O)O)NC(=O)[C@H](Cc3ccccc3)NC2=O)cc1 [compound 14, c[(S)-Phu-Phe-Asp-Val-(S)-isoAsp]] ([Phe(4-NH2)]([CO-NH(2-Me-phenyl)])FDVD-OH; lactam N-5)
α4β1 integrin [1]
  IC50: > 5 µM

## Cc1ccccc1NC(=O)Nc1ccc(C[C@H]2NC(=O)C[C@@H](C(=O)O)NC(=O)[C@H](c3ccccc3)NC(=O)[C@H](CC(=O)O)NC(=O)[C@H](CC(C)C)NC2=O)cc1 [compound 16, c[(R)-Phu-Leu-Asp-Phg-(S)-isoAsp]] ([dPhe(4-NH2)]([CO-NH(2-Me-phenyl)])LD[Phg]D-OH; lactam N-5)
α4β1 integrin [1]
  IC50: > 5 µM

From PMC10108353, “Design and Pharmacological Characterization of α4β1 Integrin Cyclopeptide Agonists: Computational Investigation of Ligand Determinants for Agonism versus Antagonism” (Journal of Medicinal Chemistry, 2023)
